Experimental data as given in the supplement of paper PMC6045584.
± gives the standard deviation of the averaged measurements.

Experiments:
EVEROLIMUS = compound: CO[C@H]1C[C@@H]2CC[C@@H](C)[C@@](O)(O2)C(=O)C(=O)N2CCCC[C@H]2C(=O)O[C@H]([C@H](C)C[C@@H]2CC[C@@H](OCCO)[C@H](OC)C2)CC(=O)[C@H](C)/C=C(\C)[C@@H](O)[C@@H](OC)C(=O)[C@H](C)C[C@H](C)/C=C/C=C/C=C/1C [EVEROLIMUS]; assay: surviving fraction relative to DMSO-only wells; higher = less growth inhibition; conditions: exposure time: 5 days
How it was run: (§1)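 Lines were retained only if, across three screens, replicate Pearson r was >0.7 and median Z' was >0.3. Viability was measured as CellTiter-Glo luminescence and reported as surviving fraction relative to the median of DMSO-only wells. Readings followed 10 minutes at room temperature, after log-phase tumour cells seeded at 250–500 per well in 384-well plates had been exposed, from 24 hours after seeding, continuously for five days to inhibitors at 0.5, 1, 5, 10, 50, 100, 500 and 1000 nM.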

ERLOTINIB = compound: C#Cc1cccc(Nc2ncnc3cc(OCCOC)c(OCCOC)cc23)c1 [ERLOTINIB]; assay: as above; conditions: exposure time: 5 days
How it was run: as §1

[1] = compound: Cc1nc(Nc2n[nH]c3c2CN(C(=O)N[C@H](CN(C)C)c2ccccc2)C3(C)C)c2sccc2n1; assay: area under dose-response curve of surviving fraction (unscaled, Aref=0) (surviving fraction x log10(nM)); higher = more resistant; conditions: exposure time: 5 days; dose range 0.5-1000 nM
How it was run: (§2)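 Three screens per tumour cell line were run in 384-well plates at eight inhibitor concentrations from 0.5 to 1000 nM over five days. Surviving fractions, from CellTiter-Glo luminescence normalised to DMSO-only wells, were fitted with 3-parameter logistic curves in the drc R package. The reported area under the curve is the unscaled activity area. It spans log10 dose, and Aref is 0.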

ETOPOSIDE = compound: COc1cc([C@@H]2c3cc4c(cc3[C@@H](O[C@@H]3O[C@@H]5CO[C@@H](C)O[C@H]5[C@H](O)[C@H]3O)[C@H]3COC(=O)[C@H]23)OCO4)cc(OC)c1O [ETOPOSIDE]; assay: as above; conditions: exposure time: 5 days; dose range 0.5-1000 nM
How it was run: as §2

VINORELBINE = compound: CCC1=C[C@@H]2CN(C1)Cc1c([nH]c3ccccc13)[C@@](C(=O)OC)(c1cc3c(cc1OC)N(C)[C@H]1[C@@](O)(C(=O)OC)[C@H](OC(C)=O)[C@]4(CC)C=CCN5CC[C@]31[C@@H]54)C2 [VINORELBINE]; assay: as above; conditions: exposure time: 5 days; dose range 0.5-1000 nM
How it was run: as §2

GEMCITABINE = compound: Nc1ccn([C@@H]2O[C@H](CO)[C@@H](O)C2(F)F)c(=O)n1 [GEMCITABINE]; assay: as above; conditions: exposure time: 5 days; dose range 0.5-1000 nM
How it was run: as §2

| Test System | surviving fraction (EVEROLIMUS; 0.5 nM) | surviving fraction (EVEROLIMUS; 1 nM) | surviving fraction (EVEROLIMUS; 5 nM) | surviving fraction (EVEROLIMUS; 10 nM) | surviving fraction (EVEROLIMUS; 50 nM) | surviving fraction (EVEROLIMUS; 100 nM) | surviving fraction (EVEROLIMUS; 500 nM) | surviving fraction (EVEROLIMUS; 1000 nM) | surviving fraction (ERLOTINIB; 0.5 nM) | surviving fraction (ERLOTINIB; 1 nM) | surviving fraction (ERLOTINIB; 10 nM) | surviving fraction (ERLOTINIB; 50 nM) | surviving fraction (ERLOTINIB; 100 nM) | surviving fraction (ERLOTINIB; 500 nM) | area under dose-response curve [1] | area under dose-response curve (ETOPOSIDE) | area under dose-response curve (VINORELBINE) | surviving fraction (ERLOTINIB; 5 nM) | surviving fraction (ERLOTINIB; 1000 nM) | area under dose-response curve (GEMCITABINE) |
| --- | --- | --- | --- | --- | --- | --- | --- | --- | --- | --- | --- | --- | --- | --- | --- | --- | --- | --- | --- | --- |
| MDAMB157 BREAST | 0.696 ± 0.11 | 0.817 ± 0.043 | 0.747 ± 0.05 | 0.692 ± 0.011 | 0.634 ± 0.05 | 0.712 ± 0.052 | 0.598 ± 0.041 | 0.572 ± 0.095 | 0.981 ± 0.071 | 0.985 ± 0.11 | 0.998 ± 0.056 | 0.97 ± 0.091 | 1.04 ± 0.018 | 0.999 ± 0.073 | 1.55 | 2.68 | 1.41 |  |  |  |
| NOS1 BONE | 0.77 ± 0.073 | 0.655 ± 0.039 | 0.607 ± 0.022 | 0.536 ± 0.048 | 0.491 ± 0.03 | 0.461 ± 0.052 | 0.415 ± 0.019 | 0.362 ± 0.023 | 1.22 ± 0.035 |  | 1.18 ± 0.075 | 1.33 ± 0.045 | 1.14 ± 0.094 | 0.827 ± 0.16 | 1.98 |  | 1.92 | 1.24 ± 0.15 | 0.561 ± 0.011 | 2.31 |
| OSHN BONE | 1.06 ± 0.014 | 1.03 ± 0.038 | 0.991 ± 0.035 | 0.983 ± 0.026 | 1.05 ± 0.054 | 1.06 ± 0.024 | 1.04 ± 0.057 | 1.06 ± 0.023 | 1.07 ± 0.029 | 1.1 ± 0.016 | 1.07 ± 0.029 |  | 1.163 ± 0.0072 | 1.161 ± 0.001 | 1.67 | 3 | 1.83 | 1.1 ± 0.026 | 1.1173 ± 0.0011 |  |
| SCC36 HEADNECK | 1.07 ± 0.056 | 1.09 ± 0.14 | 1.03 ± 0.018 | 0.899 ± 0.061 | 1.008 ± 0.0093 | 0.909 ± 0.097 | 0.842 ± 0.031 | 0.733 ± 0.014 |  | 0.929 ± 0.089 | 1.07 ± 0.057 |  | 0.82 ± 0.033 | 0.548 ± 0.059 | 0.887 |  | 1.6 | 1.06 ± 0.032 | 0.397 ± 0.038 | 2.34 |
| SG28 HEADNECK | 1.15 ± 0.028 | 1.09 ± 0.026 | 0.879 ± 0.063 | 0.8505 ± 0.005 | 0.809 ± 0.026 | 0.767 ± 0.0028 | 0.68 ± 0.0028 | 0.775 ± 0.0028 | 1.2 ± 0.12 | 1.1 ± 0.021 |  |  | 1.097 ± 0.0071 | 0.546 ± 0.052 | 2.12 | 3.66 | 2.47 | 1.13 ± 0.07 | 1.23 ± 0.1 |  |
| SG31 HEADNECK | 0.931 ± 0.077 | 0.905 ± 0.11 | 0.638 ± 0.041 | 0.62 ± 0.01 | 0.641 ± 0.035 | 0.591 ± 0.1 | 0.539 ± 0.035 | 0.574 ± 0.047 | 1.29 ± 0.38 | 1.29 ± 0.13 | 0.863 ± 0.092 | 1.08 ± 0.18 | 0.762 ± 0.059 | 0.716 ± 0.2 | 2.15 |  | 2.07 | 1.03 ± 0.11 | 0.667 ± 0.21 | 2.51 |
| SG32 HEADNECK | 1.22 ± 0.19 | 1.22 ± 0.15 | 1.44 ± 0.47 | 1.01 ± 0.14 | 0.813 ± 0.052 | 0.601 ± 0.082 | 0.556 ± 0.025 | 0.499 ± 0.026 | 1.14 ± 0.11 | 1.11 ± 0.092 | 1.03 ± 0.18 | 1.12 ± 0.14 | 1.11 ± 0.092 | 0.795 ± 0.067 | 1.04 |  | 1.95 | 1.1 ± 0.29 | 1.26 ± 0.28 | 1.77 |
